Experimental data from ChEMBL document CHEMBL5365547, “Unleashing the Potential of 1,3-Diketone Analogues as Selective LH2 Inhibitors” (ACS Med Chem Lett, 2023).
Calls of active or inactive are those of the source. No cut-off for these calls is given here.

How the values were obtained:
[1] = biological target: T1, Procollagen-lysine,2-oxoglutarate 5-dioxygenase 2 (Homo sapiens, UniProt O00469); test: Inhibition of human recombinant LH2 expressed in CHO cells incubated for 30 mins by luciferase-based Succinate-GloTM JmjC Demethylase/Hydroxylase Assay; type: cell-based
T1 sequence (O00469 whole entry): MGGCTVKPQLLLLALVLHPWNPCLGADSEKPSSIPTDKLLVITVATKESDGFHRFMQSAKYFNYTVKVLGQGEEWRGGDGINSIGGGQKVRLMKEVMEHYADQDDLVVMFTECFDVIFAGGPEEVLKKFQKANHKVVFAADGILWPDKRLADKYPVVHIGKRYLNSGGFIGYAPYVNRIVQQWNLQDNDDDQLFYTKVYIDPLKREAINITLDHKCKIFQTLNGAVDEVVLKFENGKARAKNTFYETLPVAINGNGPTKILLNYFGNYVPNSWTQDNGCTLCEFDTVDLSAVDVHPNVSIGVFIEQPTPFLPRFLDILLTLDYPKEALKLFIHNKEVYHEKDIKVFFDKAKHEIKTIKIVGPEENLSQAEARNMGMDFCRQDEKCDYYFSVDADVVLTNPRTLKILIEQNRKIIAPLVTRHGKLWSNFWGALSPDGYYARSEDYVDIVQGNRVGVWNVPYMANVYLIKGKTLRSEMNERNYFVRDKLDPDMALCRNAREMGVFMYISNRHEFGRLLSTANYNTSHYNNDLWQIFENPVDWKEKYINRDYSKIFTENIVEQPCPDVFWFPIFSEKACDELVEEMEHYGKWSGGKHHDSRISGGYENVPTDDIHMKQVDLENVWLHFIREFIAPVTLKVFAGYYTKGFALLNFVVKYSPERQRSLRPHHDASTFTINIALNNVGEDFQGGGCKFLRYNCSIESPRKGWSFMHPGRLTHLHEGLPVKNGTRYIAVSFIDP

344SQ = test: Antiproliferative activity against mouse wild type 344SQ cells assessed as reduction in cell viability observed after 48 hrs by CCK-8 assay; type: functional, cell-based
[2] = biological target: T2, Lysine-specific demethylase 4A (Homo sapiens) (UniProt O75164); test: Inhibition of JMJD2A (unknown origin) at 11 uM by Succinate-Glo kit assay
T2 sequence (whole entry): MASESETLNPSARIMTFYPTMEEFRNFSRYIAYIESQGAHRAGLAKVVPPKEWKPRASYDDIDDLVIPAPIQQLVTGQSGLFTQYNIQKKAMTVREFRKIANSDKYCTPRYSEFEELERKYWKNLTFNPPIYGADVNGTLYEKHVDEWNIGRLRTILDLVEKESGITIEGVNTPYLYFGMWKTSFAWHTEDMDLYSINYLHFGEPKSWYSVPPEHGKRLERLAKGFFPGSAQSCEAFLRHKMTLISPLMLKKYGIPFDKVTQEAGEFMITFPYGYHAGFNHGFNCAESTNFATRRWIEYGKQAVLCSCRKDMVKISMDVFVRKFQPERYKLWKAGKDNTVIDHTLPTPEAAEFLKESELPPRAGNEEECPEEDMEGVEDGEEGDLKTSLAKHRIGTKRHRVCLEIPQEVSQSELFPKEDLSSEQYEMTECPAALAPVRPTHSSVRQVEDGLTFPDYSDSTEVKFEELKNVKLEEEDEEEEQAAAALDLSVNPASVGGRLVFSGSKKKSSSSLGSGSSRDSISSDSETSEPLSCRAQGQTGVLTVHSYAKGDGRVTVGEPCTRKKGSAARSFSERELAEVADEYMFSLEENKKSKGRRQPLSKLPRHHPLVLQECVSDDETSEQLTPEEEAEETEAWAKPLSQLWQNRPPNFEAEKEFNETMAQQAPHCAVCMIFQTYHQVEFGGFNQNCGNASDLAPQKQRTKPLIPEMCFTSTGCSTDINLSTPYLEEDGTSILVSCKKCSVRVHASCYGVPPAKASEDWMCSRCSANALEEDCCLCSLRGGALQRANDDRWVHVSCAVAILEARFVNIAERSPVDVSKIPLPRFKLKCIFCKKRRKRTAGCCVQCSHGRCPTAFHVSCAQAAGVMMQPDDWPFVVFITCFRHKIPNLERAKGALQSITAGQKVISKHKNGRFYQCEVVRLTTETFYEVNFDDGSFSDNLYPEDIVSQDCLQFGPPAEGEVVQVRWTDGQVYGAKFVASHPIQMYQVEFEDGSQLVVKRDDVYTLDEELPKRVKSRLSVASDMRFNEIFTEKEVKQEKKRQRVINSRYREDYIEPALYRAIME

[3] = biological target: T3, Multifunctional procollagen lysine hydroxylase and glycosyltransferase LH3 (Homo sapiens, UniProt O60568); test: Inhibition of human recombinant LH3 expressed in CHO cells incubated for 30 mins by luciferase-based Succinate-GloTM JmjC Demethylase/Hydroxylase Assay; type: cell-based
T3 sequence (O60568 whole entry): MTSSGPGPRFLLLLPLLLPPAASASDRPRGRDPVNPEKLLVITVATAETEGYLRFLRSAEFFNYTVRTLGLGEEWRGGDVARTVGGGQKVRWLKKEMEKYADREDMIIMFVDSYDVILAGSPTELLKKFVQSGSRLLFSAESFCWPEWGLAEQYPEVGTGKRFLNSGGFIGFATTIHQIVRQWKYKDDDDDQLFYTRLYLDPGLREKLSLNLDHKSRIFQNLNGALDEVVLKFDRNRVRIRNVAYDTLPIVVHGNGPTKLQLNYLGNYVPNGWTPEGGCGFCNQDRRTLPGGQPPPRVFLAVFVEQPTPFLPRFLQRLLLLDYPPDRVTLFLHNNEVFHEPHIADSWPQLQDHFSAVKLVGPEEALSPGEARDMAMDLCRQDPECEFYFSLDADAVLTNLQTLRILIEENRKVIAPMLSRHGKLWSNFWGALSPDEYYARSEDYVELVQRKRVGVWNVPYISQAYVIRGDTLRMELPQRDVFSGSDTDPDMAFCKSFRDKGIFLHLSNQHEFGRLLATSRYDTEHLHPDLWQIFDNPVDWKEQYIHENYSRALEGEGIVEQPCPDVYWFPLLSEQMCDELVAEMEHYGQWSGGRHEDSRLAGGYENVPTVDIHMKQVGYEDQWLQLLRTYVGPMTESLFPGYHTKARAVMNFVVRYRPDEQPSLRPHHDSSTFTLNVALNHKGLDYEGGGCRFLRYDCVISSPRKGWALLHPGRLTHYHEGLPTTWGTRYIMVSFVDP

[4] = biological target: T4, Procollagen-lysine,2-oxoglutarate 5-dioxygenase 1 (Homo sapiens, UniProt Q02809); test: Inhibition of human recombinant LH1 expressed in CHO cells incubated for 30 mins by luciferase-based Succinate-GloTM JmjC Demethylase/Hydroxylase Assay; type: cell-based
T4 sequence (Q02809 whole entry): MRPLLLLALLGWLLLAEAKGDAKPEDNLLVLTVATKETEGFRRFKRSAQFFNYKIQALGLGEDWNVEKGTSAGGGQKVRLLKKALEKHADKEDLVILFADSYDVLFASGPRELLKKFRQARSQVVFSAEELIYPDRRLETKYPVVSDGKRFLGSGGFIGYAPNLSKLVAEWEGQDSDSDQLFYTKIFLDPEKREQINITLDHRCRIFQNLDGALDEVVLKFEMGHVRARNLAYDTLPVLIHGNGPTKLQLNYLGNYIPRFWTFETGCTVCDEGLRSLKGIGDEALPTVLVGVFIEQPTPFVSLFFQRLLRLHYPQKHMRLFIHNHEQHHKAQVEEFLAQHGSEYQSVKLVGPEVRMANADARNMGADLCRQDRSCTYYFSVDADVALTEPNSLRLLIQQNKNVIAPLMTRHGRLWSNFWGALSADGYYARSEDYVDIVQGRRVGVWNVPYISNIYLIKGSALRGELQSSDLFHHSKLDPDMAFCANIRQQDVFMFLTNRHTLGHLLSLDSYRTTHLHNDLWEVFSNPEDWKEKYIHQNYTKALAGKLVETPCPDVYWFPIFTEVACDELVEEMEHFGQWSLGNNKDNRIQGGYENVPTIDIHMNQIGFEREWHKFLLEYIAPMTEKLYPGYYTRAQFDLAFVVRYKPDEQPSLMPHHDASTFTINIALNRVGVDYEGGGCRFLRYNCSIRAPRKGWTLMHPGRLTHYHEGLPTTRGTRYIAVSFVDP

Homo sapiens [5] = organism: Homo sapiens; test: Selectivity ratio of IC50 for inhibition of human recombinant LH1 to IC50 for inhibition of human recombinant LH2; settings: time 30.0 min
Homo sapiens [6] = organism: Homo sapiens; test: Selectivity ratio of IC50 for inhibition of human recombinant LH3 to IC50 for inhibition of human recombinant LH2

Compound | IC50 ([1]; read-out: IC50) [µM] | further results
O=C(CC(=O)c1cccnc1)c1ccc([N+](=O)[O-])cc1 | > 10 | 
CN1CCN(c2cccc(C(=O)CC(=O)c3ccncc3)c2)CC1 |  | Activity (344SQ): inactive
c1cc(-c2cc(-c3ccncc3)n[nH]2)cc(N2CCOCC2)c1 | > 10 | 
O=C(CC(=O)c1cccnc1)c1ccc(C(F)(F)F)cc1 |  | IC50 ([1]; cho): Not Active
CN1CCN(c2cccc(-c3cc(-c4ccncc4)n[nH]3)c2)CC1 | > 10 | 
O=C(CC(=O)c1cccnc1)c1ccccc1 | 5 | 
Cc1ccc(C(=O)CC(=O)c2cccc(N3CCOCC3)c2)cc1 |  | IC50 ([1]; cho): Not Active
O=C(CC(=O)C(F)(F)F)c1ccc([N+](=O)[O-])cc1 | > 10 | 
O=C(CC(=O)c1nnn[nH]1)c1cccc(N2CCOCC2)c1 | > 10 | 
O=C(CC(=O)c1ccncc1)c1ccccc1 | 1 | inhibition [2]: Active; IC50 [3]: 5.2 µM; IC50 [4]: 6.4 µM; Selectivity ratio (Homo sapiens [5]): 6; Selectivity ratio (Homo sapiens [6]): 5
CN1CCN(c2cccc(C(=O)CC(=O)c3nnn[nH]3)c2)CC1 | > 10 | 
O=C(c1cccnc1)C1CCc2cc(Cl)ccc2C1=O (stereo not drawn) |  | IC50 ([1]; cho): Not Active
O=C(c1cccnc1)C1CCc2cc(F)ccc2C1=O (stereo not drawn) | > 10 | 
